Data taken from ChEMBL document CHEMBL5291721, “A preclinical secondary pharmacology resource illuminates target-adverse drug reaction associations of marketed drugs” (Nat Commun, 2023).

What was measured:
[1] = target: Beta-3 adrenergic receptor (Homo sapiens, UniProt P13945)
Androgen receptor [2] = target: T1, Androgen receptor (Rattus norvegicus, UniProt P15207)
T1 sequence (P15207 whole entry): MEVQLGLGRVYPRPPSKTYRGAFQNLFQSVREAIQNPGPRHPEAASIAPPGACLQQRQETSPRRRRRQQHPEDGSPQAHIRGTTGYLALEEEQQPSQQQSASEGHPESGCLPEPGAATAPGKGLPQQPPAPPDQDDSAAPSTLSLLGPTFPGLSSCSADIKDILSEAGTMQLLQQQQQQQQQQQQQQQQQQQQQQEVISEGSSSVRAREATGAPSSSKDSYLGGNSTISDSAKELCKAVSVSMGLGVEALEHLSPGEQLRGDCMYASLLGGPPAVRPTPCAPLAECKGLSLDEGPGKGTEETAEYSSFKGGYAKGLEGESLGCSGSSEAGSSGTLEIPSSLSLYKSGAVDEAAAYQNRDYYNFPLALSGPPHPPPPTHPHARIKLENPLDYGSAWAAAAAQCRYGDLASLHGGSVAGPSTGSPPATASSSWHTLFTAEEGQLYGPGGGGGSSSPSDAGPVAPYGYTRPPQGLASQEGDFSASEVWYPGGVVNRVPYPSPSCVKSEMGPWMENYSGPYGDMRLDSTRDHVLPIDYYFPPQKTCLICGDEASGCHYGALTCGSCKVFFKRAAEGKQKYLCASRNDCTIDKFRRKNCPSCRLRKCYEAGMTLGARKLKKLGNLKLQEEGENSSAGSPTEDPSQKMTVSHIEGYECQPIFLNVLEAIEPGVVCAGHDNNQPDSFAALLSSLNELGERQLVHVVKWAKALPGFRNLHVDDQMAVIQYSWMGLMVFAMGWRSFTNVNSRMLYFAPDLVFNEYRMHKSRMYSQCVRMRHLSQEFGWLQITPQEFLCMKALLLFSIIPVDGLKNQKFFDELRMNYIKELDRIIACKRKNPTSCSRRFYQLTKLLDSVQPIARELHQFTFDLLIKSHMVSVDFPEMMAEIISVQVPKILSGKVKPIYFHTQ

[3] = target: T2, Corticotropin-releasing factor receptor 2 (Homo sapiens, UniProt Q13324)
T2 sequence (Q13324 whole entry): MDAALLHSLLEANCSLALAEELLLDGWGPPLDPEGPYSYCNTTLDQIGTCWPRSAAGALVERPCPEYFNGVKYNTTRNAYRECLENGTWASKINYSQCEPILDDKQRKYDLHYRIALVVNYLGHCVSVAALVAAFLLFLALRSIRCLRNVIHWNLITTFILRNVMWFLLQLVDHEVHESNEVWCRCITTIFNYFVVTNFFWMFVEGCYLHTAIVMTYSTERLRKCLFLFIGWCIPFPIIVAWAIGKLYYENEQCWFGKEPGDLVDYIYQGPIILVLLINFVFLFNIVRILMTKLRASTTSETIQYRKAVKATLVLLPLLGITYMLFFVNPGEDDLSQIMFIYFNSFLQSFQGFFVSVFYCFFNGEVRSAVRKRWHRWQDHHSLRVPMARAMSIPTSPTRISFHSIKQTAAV

D(4) dopamine receptor = target: T3, D(4) dopamine receptor (Homo sapiens, UniProt P21917)
T3 sequence (P21917 whole entry): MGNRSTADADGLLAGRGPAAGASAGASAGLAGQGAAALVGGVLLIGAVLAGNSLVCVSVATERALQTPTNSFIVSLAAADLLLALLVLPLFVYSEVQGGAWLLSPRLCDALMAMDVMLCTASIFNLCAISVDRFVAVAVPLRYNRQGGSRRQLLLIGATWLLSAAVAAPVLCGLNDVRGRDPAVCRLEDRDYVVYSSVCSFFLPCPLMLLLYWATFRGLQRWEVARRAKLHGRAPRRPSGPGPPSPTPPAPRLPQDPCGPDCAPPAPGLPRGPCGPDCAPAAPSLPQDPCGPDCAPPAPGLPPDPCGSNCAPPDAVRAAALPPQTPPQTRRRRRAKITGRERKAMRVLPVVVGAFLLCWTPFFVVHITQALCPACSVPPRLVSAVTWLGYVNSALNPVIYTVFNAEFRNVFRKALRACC

[4] = target: T4, Endothelin receptor type B (Homo sapiens, UniProt P24530)
T4 sequence (P24530 whole entry): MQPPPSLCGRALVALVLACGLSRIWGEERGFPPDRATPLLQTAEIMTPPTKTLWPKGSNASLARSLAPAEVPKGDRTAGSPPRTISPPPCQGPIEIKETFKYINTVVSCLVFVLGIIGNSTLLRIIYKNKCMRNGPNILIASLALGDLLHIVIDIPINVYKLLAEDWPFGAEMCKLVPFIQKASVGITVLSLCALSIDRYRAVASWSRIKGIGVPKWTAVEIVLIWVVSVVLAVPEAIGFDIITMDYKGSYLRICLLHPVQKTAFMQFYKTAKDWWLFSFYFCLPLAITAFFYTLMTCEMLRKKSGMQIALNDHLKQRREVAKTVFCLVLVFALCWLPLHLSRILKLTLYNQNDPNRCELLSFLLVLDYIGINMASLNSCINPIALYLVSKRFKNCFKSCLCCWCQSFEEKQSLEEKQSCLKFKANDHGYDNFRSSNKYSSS

Estrogen receptor beta = Estrogen receptor beta (Homo sapiens, UniProt Q92731)
Sequence of Estrogen receptor beta (Q92731 whole entry): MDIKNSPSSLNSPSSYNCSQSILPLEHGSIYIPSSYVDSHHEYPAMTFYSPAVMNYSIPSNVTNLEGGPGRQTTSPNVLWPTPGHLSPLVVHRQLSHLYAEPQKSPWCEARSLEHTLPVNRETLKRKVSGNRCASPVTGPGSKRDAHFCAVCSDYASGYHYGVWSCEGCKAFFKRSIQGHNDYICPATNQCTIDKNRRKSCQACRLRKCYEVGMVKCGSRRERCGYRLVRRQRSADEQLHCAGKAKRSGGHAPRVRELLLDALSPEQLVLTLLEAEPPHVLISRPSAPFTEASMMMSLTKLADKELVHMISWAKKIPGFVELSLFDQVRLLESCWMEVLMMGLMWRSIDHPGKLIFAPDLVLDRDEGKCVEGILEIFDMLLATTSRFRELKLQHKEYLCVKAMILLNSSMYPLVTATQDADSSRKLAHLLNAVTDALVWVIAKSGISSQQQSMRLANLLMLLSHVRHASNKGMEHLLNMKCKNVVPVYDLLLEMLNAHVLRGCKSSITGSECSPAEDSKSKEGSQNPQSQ

Substance-P receptor = Substance-P receptor (Homo sapiens, UniProt P25103)
Sequence of Substance-P receptor (P25103 whole entry): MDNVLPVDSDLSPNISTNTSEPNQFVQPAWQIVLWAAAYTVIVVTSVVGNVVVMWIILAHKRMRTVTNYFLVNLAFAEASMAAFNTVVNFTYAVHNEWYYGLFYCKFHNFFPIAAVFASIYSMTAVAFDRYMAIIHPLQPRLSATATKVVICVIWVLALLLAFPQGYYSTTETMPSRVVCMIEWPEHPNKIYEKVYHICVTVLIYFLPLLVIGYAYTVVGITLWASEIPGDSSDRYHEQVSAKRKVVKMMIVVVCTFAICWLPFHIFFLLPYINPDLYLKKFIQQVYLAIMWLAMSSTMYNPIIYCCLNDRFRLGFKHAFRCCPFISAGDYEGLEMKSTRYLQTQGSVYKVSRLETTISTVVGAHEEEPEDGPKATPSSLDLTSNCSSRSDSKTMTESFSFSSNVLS

[5] = target: T5, 5-hydroxytryptamine receptor 1A (Homo sapiens, UniProt P08908)
T5 sequence (P08908 whole entry): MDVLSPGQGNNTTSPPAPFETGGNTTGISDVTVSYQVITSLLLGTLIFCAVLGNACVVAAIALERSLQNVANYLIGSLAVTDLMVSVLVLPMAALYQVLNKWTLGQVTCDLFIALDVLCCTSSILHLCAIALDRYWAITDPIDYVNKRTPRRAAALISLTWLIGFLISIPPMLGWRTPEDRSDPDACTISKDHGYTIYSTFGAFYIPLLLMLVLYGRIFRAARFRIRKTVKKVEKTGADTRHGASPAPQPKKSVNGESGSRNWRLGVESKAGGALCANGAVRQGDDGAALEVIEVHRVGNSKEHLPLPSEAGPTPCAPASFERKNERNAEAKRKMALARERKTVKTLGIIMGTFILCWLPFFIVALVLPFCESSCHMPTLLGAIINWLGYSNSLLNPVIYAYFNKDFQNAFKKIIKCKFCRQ

Androgen receptor [6] = target: T1, Androgen receptor; format: functional
Androgen receptor [7] = target: T1, Androgen receptor; format: functional; remark: listed apart in the source
[8] = target: Gamma-aminobutyric acid receptor subunit alpha-1/alpha-2/beta-2/gamma-2 (Homo sapiens, UniProt P14867+P18507+P47869+P47870); format: functional, cell-based
Sequence of Gamma-aminobutyric acid receptor subunit alpha-1/alpha-2/beta-2/gamma-2 (P14867 whole entry): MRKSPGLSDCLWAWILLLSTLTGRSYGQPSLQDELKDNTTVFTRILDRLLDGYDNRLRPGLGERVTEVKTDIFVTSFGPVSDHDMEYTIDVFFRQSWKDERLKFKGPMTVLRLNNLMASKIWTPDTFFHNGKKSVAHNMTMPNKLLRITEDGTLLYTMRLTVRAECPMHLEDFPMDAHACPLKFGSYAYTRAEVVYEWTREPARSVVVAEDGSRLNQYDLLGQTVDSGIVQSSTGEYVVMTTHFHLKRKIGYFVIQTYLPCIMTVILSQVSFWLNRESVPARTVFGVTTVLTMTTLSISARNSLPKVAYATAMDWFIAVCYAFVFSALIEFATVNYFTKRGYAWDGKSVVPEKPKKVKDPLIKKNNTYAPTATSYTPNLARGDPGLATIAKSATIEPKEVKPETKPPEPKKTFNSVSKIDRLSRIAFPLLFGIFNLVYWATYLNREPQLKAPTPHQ
Sequence of Gamma-aminobutyric acid receptor subunit alpha-1/alpha-2/beta-2/gamma-2 (P47870 whole entry): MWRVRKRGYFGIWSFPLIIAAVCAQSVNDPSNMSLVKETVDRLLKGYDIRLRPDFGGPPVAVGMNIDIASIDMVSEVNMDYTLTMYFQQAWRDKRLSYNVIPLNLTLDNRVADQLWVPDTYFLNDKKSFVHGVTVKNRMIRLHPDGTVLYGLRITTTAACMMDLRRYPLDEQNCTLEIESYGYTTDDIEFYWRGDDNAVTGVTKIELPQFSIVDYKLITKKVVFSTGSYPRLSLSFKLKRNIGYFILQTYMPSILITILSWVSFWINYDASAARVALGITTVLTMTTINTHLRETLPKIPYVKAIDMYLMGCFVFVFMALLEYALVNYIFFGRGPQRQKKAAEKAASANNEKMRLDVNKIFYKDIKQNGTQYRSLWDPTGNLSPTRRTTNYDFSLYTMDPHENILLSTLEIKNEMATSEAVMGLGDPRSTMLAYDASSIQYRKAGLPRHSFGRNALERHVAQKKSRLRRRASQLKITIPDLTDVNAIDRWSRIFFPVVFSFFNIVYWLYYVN
Sequence of Gamma-aminobutyric acid receptor subunit alpha-1/alpha-2/beta-2/gamma-2 (P18507 whole entry): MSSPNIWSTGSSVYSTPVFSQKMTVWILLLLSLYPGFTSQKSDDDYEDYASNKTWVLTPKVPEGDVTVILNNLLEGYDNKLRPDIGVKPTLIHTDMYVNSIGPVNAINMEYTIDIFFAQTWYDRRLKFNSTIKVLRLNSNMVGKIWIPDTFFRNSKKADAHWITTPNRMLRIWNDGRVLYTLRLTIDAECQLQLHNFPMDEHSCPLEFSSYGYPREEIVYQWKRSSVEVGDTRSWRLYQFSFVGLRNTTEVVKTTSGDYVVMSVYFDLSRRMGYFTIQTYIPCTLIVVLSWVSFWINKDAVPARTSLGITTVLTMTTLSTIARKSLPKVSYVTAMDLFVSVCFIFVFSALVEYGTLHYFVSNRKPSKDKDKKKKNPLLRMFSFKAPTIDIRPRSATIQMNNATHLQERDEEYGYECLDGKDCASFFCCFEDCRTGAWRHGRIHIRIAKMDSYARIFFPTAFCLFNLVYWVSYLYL
Sequence of Gamma-aminobutyric acid receptor subunit alpha-1/alpha-2/beta-2/gamma-2 (P47869 whole entry): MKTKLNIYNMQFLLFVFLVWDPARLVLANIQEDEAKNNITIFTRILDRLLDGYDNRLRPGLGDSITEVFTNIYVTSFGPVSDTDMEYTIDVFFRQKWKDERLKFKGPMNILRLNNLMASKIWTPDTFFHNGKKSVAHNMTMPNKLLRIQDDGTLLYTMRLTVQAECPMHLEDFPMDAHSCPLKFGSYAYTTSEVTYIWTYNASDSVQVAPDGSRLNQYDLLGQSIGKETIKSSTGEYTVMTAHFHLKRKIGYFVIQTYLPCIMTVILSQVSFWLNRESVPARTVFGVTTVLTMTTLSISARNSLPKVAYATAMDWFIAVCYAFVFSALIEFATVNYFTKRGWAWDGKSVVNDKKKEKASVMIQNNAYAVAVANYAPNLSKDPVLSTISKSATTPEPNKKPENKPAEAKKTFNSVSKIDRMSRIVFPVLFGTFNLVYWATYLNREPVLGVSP
Further: assay procedure not described here.

Sequence of Beta-3 adrenergic receptor (P13945 whole entry): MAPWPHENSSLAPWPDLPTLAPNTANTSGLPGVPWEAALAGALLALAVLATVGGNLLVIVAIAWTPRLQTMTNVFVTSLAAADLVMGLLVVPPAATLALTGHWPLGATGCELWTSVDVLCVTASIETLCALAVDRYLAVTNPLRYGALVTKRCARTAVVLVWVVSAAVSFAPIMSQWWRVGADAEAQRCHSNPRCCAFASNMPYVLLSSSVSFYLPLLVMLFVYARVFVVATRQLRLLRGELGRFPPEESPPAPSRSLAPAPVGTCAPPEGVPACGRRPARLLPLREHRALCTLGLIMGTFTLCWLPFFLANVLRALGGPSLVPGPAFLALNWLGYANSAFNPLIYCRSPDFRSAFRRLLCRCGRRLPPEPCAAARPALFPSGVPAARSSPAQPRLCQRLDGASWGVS

SMILES	AC50 [1]	AC50 [3]	AC50 (D(4) dopamine receptor)	AC50 [4]	AC50 (Substance-P receptor)	AC50 [5]	also measured
C[C@]1(COc2ccc(N3CCC(Oc4ccc(OC(F)(F)F)cc4)CC3)cc2)Cn2cc([N+](=O)[O-])nc2O1	> 30 µM	> 30 µM	> 10 µM	> 30 µM	> 10 µM	> 10 µM	AC50 (Androgen receptor [2]): > 30 µM; AC50 (Estrogen receptor beta): > 30 µM
C[C@]12CC[C@H](O)CC1=CC[C@@H]1[C@@H]2CC[C@]2(C)C(c3cccnc3)=CC[C@@H]12 [ABIRATERONE]							AC50 (Androgen receptor [2]): > 30 µM
CC(=O)OCC[N+](C)(C)C [ACETYLCHOLINE]	> 30 µM	> 30 µM	> 10 µM	> 30 µM	> 10 µM	> 10 µM	AC50 (Estrogen receptor beta): > 30 µM
O=C(Nc1nc(-c2cc(Cl)cs2)c(N2CCN(C3CCCCC3)CC2)s1)c1cnc(N2CCC(C(=O)O)CC2)c(Cl)c1 [AVATROMBOPAG]			> 10 µM	> 10 µM	> 10 µM	> 10 µM	
CN(C)C(=O)Oc1cc(OC(=O)N(C)C)cc(C(O)CNC(C)(C)C)c1 (stereo not given) [BAMBUTEROL]							AC50 (Androgen receptor [6]): > 30 µM; AC50 (Androgen receptor [7]): > 30 µM
C[C@H]1C[C@H]2[C@@H]3CCC4=CC(=O)C=C[C@]4(C)[C@@]3(Cl)[C@@H](O)C[C@]2(C)[C@@]1(O)C(=O)CO [BECLOMETHASONE]	> 30 µM	> 30 µM	> 10 µM	> 30 µM	> 10 µM	> 10 µM	
CO/N=C(\C(=O)N[C@@H]1C(=O)N2C(C(=O)[O-])=C(C[n+]3cccc4c3CCC4)CS[C@H]12)c1csc(N)n1 [CEFPIROME]							AC50 [8]: > 30 µM
Oc1c(I)cc(Cl)c2cccnc12 [CLIOQUINOL]							AC50 [8]: > 30 µM
COc1ccc2c(c1)[C@]13CCCC[C@@H]1[C@H](C2)N(C)CC3 [DEXTROMETHORPHAN]	> 30 µM	> 30 µM	> 10 µM	> 30 µM	6.94 µM	> 10 µM	AC50 (Estrogen receptor beta): > 30 µM
O=c1oc2ccccc2c(O)c1Cc1c(O)c2ccccc2oc1=O [DICUMAROL]							AC50 (Androgen receptor [2]): > 10 µM
CCn1cc(C(=O)O)c(=O)c2cc(F)c(N3CCNCC3)nc21 [ENOXACIN]	> 30 µM	> 30 µM	> 10 µM	> 30 µM	> 10 µM	> 10 µM	AC50 (Estrogen receptor beta): > 30 µM
O=C(O)CSCC(=O)NC1CCSC1=O (stereo not given) [ERDOSTEINE]							AC50 (Androgen receptor [6]): > 30 µM; AC50 (Androgen receptor [7]): > 30 µM
N=C(N)c1ccc2cc(OC(=O)c3ccc(N=C(N)N)cc3)ccc2c1 [NAFAMOSTAT]							AC50 (Androgen receptor [6]): 12 µM
COCCCOc1ccnc(C[S+]([O-])c2nc3ccccc3[nH]2)c1C (stereo not given) [RABEPRAZOLE]	> 30 µM	> 30 µM	> 10 µM	> 30 µM	> 10 µM	> 10 µM	AC50 (Estrogen receptor beta): > 30 µM
CC(C)=CCOc1ccc(/C=C/C(=O)c2ccc(OCC=C(C)C)cc2OCC(=O)O)cc1 [SOFALCONE]							AC50 (Androgen receptor [6]): > 30 µM; AC50 (Androgen receptor [7]): 6.1 µM
O=C(CCCN1CCC2(CC1)C(=O)NCN2c1ccccc1)c1ccc(F)cc1 [SPIPERONE]							AC50 [8]: > 30 µM
CN(C)c1cc(NC(=O)CNC(C)(C)C)c(O)c2c1C[C@H]1C[C@H]3[C@H](N(C)C)C(O)=C(C(N)=O)C(=O)[C@@]3(O)C(O)=C1C2=O [TIGECYCLINE]							AC50 (Androgen receptor [2]): > 30 µM
OCCN1CCN(CC/C=C2/c3ccccc3Sc3ccc(Cl)cc32)CC1 [ZUCLOPENTHIXOL]							AC50 (Androgen receptor [2]): > 10 µM
